Data taken from ChEMBL document CHEMBL1201862, “PubChem BioAssay data set” (2004).
Calls of active or inactive are those of the source.

What was measured:
[1] = target: Protein disulfide-isomerase (Homo sapiens, UniProt P07237); experiment: PDI inhibitors, insulin aggregation turbidity, dose response, biochemical, absorbance, cherry-picked samples (AID 602350); type: functional
Cytochrome P450 3A4 = Cytochrome P450 3A4 (Homo sapiens, UniProt P08684); settings: Potency;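 also: confirmatory qHTS run detecting inhibitors and substrates of CYP3A4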
[2] = target: Aryl hydrocarbon receptor (Homo sapiens, UniProt P35869); settings: Potency;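 also: confirmatory quantitative high-throughput screen measuring activation of the AhR signaling pathway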
[3] = target: T1, Sentrin-specific protease 7 (Homo sapiens, UniProt Q9BQF6); experiment: SENP7 protease inhibitors, SAR follow-up, biochemical, luminescence (AID 504497); type: functional
T1 sequence (Q9BQF6 whole entry): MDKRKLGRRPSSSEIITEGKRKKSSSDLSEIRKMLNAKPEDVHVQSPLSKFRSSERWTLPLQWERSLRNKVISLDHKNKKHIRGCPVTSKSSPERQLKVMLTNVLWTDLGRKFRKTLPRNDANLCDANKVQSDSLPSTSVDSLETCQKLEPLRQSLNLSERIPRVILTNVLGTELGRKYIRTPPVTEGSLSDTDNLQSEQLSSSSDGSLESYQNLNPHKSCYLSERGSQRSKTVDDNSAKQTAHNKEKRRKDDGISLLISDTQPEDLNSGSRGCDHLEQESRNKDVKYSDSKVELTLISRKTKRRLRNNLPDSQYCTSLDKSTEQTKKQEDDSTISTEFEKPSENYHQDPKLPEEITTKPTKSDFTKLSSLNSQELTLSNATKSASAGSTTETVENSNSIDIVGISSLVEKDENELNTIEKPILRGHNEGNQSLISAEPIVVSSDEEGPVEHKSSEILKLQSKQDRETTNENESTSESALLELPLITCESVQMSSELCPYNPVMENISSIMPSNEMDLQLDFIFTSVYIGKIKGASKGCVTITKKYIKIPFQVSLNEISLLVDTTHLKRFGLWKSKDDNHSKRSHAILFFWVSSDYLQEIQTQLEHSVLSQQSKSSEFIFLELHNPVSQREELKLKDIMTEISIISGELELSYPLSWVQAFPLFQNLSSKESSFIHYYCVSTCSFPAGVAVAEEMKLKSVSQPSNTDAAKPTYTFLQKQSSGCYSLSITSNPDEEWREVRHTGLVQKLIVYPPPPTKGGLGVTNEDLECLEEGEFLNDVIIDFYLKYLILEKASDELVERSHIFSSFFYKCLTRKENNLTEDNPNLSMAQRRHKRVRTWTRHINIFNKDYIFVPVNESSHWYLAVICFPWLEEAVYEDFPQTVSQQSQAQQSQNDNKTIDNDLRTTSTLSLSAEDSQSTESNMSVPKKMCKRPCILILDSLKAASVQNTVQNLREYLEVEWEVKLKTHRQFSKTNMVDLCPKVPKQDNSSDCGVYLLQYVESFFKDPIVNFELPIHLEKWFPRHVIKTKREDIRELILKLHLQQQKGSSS

[4] = target: T2, Sentrin-specific protease 6 (Homo sapiens, UniProt Q9GZR1); experiment: SAR Analysis of small molecule inhibitors of Sentrin-specific protease 6 (SENP6) using a Luminescent assay. [Related pubchem assays (depositor defined):AID2582, AID2599]; type: functional
T2 sequence (Q9GZR1 whole entry): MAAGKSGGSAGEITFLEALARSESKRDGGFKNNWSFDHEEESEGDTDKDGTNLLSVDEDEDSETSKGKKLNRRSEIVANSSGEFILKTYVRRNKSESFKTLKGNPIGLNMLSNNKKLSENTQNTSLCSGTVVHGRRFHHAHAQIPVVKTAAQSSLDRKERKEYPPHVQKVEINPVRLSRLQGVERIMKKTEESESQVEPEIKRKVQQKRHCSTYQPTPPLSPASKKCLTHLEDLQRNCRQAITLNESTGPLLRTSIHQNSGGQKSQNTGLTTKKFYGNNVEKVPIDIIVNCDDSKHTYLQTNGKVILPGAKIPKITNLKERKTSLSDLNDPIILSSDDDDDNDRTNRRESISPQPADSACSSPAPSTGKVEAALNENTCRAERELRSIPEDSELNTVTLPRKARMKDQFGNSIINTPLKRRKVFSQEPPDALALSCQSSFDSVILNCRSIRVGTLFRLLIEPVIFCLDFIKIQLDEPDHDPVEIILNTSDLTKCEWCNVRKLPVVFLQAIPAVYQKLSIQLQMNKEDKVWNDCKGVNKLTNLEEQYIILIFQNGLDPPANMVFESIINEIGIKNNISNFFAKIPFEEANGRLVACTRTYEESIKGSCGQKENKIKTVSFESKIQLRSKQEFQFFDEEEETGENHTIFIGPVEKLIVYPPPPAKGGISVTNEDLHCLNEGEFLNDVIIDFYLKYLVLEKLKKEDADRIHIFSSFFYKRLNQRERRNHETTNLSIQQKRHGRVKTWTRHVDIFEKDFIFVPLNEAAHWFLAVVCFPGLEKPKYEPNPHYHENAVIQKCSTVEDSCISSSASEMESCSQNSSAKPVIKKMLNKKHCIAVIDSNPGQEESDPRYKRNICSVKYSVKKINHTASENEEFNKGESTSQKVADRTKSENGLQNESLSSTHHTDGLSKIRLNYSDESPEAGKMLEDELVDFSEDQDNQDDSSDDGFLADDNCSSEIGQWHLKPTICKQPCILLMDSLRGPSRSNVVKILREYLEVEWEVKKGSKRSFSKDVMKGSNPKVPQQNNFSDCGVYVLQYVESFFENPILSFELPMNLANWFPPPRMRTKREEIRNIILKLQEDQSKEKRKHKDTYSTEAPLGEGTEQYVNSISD

Caspase-3 = target: T3, Caspase-3 (Homo sapiens, UniProt P42574); experiment: SAR Analysis of small molecule inhibitors of Sentrin-specific proteases (SENPs) using a Caspase-3 Selectivity assay. [Related pubchem assays (depositor defined):AID2540, AID2599, AID434973, AID489001]; type: functional
T3 sequence (P42574 whole entry): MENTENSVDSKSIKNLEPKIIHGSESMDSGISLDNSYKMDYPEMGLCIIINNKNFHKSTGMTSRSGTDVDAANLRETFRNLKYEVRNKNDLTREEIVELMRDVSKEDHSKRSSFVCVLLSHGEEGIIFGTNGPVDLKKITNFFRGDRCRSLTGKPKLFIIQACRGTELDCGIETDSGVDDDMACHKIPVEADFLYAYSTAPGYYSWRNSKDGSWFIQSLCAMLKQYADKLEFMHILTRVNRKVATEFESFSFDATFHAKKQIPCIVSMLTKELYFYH

[5] = target: T4, Sentrin-specific protease 8 (Homo sapiens, UniProt Q96LD8); experiment: SENP8 protease inhibitors, SAR follow-up, biochemical, luminescence (AID 504501); type: functional
T4 sequence (Q96LD8 whole entry): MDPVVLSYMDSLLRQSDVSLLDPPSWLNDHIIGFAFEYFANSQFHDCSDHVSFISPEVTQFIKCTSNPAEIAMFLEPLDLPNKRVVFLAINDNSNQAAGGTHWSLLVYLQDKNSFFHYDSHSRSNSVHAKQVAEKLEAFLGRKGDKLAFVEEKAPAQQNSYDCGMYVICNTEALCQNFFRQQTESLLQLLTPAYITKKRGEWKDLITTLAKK

Nonstructural protein 1 = Nonstructural protein 1 (Influenza A virus, UniProt Q194T2); type: functional, Influenza A virus (A/California/07/2009(H1N1))
Prothrombin = Prothrombin (Bos taurus, UniProt P00735); experiment: thrombin inhibition, dose response, biochemical, fluorescence polarization, uHTS hits (AID 602369); type: functional
[6] = system: Streptococcus sp. 'group A'; experiment: growth inhibition of control SK(-) GAS strain, dose response, counter-screen for streptokinase expression inhibitor project, luminescence, kanamycin, BacTiterGlo, confirmation (AID 1900); type: functional, organism-based
Streptococcus = experiment: Group A Streptococcus viability loss, dose response, counter-screen for streptokinase expression inhibitor project, luminescence, BacTiterGlo (AID 1915); type: functional, organism-based;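 also: potency for reduction of bacterial viability or growth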
[7] = target: 26S proteasome non-ATPase regulatory subunit 14 (Homo sapiens, UniProt O00487); experiment: inhibition of proteasome subunit RPN11 – biochemical, fluorescence polarization, uHTS hits, confirmation (AID 602368); type: functional
[8] = target: 72 kDa type IV collagenase (Homo sapiens, UniProt P08253); experiment: Dose Response validation of uHTS RPN11 inhibitor hits using a MMP-2 Fluorescence assay.; type: functional
[9] = target: Melanin-concentrating hormone receptor 1 (Homo sapiens, UniProt Q99705); experiment: Late-stage fluorescence-based counterscreen for antagonists of the G-protein coupled receptor 7 (GPR7): cell-based dose response assay to identify antagonists of the melanin-concentrating hormone receptor 1 (MCHR1) Set 5.; type: functional
[10] = target: Neuropeptides B/W receptor type 1 (Homo sapiens, UniProt P48145); experiment: GPR7 antagonist potency, late-stage follow-up, cell-based, fluorescence, dose response, set 5 (AID 588566); type: functional
[11] = target: Cyclin-dependent kinase 5 (Homo sapiens, UniProt Q00535); type: functional;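 also: CDK5 measured as one member of a kinase profiling panel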
[12] = target: Cyclin-dependent kinase 8 (Homo sapiens, UniProt P49336); experiment: Navigating the Kinome. Panel member name: CDK8; type: functional
[13] = target: T5, Apoptotic protease-activating factor 1 (Homo sapiens, UniProt O14727); experiment: SAR analysis of small molecule Activators of Apaf-1 in a Fluorescent assay.; type: functional; settings: read-out: EC50_Mean;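 also: caspase-3 cleavage of fluorogenic Rh110 DEVD substrate downstream of apoptosome activation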
T5 sequence (O14727 whole entry): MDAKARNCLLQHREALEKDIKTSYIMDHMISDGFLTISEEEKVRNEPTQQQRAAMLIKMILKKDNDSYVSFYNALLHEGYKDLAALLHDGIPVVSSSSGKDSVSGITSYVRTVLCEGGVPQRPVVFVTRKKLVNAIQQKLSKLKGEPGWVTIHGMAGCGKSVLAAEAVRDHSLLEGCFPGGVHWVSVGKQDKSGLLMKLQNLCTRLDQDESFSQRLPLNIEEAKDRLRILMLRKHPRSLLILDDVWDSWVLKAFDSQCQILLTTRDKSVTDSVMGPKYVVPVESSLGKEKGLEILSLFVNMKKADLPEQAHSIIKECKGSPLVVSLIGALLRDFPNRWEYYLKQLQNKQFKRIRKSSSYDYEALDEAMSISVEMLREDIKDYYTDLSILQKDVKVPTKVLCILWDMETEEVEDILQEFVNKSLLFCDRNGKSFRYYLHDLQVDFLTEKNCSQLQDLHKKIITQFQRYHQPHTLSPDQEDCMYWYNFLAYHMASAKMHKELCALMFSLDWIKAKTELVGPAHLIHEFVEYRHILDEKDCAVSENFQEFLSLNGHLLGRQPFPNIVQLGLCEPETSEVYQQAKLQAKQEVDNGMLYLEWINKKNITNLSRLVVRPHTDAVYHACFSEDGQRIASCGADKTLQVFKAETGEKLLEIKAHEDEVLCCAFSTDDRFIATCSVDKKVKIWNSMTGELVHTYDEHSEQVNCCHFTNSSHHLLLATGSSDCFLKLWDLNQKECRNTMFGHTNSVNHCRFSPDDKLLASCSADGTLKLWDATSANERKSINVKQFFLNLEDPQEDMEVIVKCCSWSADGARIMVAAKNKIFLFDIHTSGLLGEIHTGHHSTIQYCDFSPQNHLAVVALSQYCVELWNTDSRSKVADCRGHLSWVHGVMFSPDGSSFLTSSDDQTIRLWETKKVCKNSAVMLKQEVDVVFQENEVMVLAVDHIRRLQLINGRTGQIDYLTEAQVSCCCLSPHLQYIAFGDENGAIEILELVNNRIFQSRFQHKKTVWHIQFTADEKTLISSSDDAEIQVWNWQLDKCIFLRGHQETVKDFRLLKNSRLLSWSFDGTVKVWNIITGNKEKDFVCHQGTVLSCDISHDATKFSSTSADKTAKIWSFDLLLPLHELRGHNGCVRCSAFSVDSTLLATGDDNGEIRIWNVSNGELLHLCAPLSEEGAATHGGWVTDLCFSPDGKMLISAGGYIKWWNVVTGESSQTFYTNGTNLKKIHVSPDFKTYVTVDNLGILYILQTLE

[14] = target: Dual specificity protein kinase CLK4 (Homo sapiens, UniProt Q9HAZ1); type: functional
[15] = ARNT/TACC3 interaction disruptors, potency, confirmation, biochemical, AlphaScreen, cherry-picked samples (AID 651703); type: functional, Homo sapiens;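 also: His-tagged ARNT PAS-B domain paired with GST-TACC3 E629A dimer coactivator fragment; potency of inhibitors that break up the complex and lower AlphaScreen signal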

Chain of Protein disulfide-isomerase (P07237 whole entry): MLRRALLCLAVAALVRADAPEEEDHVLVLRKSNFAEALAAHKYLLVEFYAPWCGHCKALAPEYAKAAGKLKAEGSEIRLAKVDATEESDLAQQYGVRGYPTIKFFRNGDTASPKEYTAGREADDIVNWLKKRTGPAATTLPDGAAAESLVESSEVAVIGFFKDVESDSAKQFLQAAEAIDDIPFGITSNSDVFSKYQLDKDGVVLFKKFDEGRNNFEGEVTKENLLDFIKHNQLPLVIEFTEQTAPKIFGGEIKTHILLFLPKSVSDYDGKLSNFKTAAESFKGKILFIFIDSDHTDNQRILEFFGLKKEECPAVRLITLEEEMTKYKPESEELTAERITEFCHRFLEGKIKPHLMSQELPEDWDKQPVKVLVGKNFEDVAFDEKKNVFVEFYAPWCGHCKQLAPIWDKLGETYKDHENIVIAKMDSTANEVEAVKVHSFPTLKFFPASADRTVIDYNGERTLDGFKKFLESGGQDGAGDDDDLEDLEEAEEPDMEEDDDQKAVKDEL
Chain of Neuropeptides B/W receptor type 1 (P48145 whole entry): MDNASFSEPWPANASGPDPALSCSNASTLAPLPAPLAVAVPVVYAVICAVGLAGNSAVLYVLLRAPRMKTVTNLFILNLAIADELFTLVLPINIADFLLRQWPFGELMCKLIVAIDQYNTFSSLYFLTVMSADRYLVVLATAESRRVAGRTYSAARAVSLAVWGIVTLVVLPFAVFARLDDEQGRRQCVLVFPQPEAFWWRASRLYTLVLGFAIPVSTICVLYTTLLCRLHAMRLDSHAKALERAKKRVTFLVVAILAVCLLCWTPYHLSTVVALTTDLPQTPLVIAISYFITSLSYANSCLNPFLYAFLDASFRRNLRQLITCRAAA
Chain of Cyclin-dependent kinase 8 (P49336 whole entry): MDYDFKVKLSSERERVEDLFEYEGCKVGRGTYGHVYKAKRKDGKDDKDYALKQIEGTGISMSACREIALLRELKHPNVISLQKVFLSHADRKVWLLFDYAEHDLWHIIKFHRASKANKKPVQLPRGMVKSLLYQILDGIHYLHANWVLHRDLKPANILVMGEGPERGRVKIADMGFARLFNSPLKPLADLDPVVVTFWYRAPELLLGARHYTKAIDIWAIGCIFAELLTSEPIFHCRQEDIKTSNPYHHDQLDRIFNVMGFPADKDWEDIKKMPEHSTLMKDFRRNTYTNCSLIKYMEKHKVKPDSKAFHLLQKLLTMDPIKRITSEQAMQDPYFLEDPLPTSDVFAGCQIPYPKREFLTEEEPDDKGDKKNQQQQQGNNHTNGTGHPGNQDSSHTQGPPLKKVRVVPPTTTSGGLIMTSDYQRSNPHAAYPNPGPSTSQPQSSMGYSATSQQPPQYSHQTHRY
Chain of Melanin-concentrating hormone receptor 1 (Q99705 whole entry): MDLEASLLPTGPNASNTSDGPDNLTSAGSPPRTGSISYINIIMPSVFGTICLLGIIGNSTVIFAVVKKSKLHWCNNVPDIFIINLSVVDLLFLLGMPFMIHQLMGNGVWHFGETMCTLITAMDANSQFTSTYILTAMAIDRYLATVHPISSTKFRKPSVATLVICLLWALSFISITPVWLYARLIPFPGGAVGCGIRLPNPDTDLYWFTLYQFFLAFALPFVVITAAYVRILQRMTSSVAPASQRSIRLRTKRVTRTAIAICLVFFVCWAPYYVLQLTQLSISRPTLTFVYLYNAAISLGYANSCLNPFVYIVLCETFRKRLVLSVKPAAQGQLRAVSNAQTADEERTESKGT
Chain of Cyclin-dependent kinase 5 (Q00535 whole entry): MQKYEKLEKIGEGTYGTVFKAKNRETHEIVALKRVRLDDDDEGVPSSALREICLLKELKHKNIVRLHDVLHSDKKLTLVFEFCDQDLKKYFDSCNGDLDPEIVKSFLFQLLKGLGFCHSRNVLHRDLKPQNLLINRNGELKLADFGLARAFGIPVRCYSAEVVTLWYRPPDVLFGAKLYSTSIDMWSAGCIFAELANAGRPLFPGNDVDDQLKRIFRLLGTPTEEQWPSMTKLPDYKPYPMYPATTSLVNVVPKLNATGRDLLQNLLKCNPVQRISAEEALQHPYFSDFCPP
Chain of Nonstructural protein 1 (Q194T2 whole entry): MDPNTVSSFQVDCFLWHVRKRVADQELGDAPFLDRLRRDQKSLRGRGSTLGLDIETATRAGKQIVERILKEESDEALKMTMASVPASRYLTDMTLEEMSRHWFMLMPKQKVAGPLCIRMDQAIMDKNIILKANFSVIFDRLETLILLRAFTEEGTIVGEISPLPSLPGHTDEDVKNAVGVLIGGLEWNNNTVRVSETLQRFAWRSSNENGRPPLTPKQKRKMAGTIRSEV
Chain of 72 kDa type IV collagenase (P08253 whole entry): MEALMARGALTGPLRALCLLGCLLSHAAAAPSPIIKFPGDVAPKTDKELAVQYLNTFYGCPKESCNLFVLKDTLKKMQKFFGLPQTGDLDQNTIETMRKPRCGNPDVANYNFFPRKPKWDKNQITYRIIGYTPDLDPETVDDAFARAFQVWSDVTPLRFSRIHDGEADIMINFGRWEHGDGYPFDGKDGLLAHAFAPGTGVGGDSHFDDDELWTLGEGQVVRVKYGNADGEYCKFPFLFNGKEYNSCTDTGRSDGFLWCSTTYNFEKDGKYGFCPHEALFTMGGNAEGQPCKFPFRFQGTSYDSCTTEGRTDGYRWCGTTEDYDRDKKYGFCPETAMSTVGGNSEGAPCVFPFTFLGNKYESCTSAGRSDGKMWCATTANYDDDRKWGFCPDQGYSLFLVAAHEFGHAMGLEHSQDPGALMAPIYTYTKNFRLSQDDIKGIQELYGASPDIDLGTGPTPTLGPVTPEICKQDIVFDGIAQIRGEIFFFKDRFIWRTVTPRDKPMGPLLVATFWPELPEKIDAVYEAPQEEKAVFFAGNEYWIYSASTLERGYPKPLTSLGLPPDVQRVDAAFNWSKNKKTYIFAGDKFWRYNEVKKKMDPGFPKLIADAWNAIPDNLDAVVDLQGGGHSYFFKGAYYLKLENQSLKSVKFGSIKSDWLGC
Chain of Cytochrome P450 3A4 (P08684 whole entry): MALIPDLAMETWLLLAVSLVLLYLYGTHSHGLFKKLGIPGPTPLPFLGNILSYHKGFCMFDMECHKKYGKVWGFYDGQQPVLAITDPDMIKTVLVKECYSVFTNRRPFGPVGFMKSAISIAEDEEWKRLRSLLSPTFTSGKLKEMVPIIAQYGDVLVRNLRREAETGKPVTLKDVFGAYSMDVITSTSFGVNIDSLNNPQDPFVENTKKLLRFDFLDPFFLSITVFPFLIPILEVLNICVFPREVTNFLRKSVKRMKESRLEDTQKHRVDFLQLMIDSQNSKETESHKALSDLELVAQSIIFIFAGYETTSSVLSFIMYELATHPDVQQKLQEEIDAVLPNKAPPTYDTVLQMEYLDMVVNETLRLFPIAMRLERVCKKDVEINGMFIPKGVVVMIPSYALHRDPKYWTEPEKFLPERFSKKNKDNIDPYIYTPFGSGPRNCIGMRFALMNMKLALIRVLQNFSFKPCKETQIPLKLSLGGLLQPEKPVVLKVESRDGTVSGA
Chain of Aryl hydrocarbon receptor (P35869 whole entry): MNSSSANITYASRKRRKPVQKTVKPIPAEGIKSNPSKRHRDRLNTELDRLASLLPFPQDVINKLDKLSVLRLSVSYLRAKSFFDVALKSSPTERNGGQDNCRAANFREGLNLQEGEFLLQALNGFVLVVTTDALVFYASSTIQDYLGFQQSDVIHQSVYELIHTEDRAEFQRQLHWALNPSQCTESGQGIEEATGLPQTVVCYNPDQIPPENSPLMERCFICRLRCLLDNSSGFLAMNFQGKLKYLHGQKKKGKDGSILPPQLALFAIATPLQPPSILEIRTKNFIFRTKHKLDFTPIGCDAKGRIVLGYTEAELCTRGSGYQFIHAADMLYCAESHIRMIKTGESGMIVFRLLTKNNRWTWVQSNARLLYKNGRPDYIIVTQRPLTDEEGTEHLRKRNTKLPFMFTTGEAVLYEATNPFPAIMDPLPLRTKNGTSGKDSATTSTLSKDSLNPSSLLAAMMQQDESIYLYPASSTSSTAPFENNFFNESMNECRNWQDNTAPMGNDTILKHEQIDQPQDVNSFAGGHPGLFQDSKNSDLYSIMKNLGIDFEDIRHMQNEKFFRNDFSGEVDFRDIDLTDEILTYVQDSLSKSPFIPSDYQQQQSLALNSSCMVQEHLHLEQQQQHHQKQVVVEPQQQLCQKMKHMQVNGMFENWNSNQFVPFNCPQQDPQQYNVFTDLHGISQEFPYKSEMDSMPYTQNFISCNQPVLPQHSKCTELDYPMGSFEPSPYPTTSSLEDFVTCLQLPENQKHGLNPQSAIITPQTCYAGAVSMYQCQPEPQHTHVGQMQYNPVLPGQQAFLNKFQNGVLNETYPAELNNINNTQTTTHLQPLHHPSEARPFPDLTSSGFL
Chain of Dual specificity protein kinase CLK4 (Q9HAZ1 whole entry, the tested form may be a part): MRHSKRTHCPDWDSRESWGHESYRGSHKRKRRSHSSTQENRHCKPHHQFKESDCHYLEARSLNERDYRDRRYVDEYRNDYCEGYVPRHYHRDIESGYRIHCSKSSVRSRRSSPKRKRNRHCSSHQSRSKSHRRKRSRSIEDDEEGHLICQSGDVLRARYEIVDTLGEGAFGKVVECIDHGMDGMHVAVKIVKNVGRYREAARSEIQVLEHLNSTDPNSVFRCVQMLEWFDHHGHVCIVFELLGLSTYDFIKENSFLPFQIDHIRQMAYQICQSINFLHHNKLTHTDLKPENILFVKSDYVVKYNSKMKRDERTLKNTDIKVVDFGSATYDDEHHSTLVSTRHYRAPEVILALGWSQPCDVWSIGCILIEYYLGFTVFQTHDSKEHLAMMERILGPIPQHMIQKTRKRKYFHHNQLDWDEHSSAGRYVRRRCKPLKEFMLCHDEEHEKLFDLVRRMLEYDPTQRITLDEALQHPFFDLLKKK

In the case of `O=C1NC[C@H](Cc2ccc(O)cc2)N(CC2CCCCC2)C1=O`, the AC50 [1] is reported as 19.5 µM (active).

In the case of `COc1cccc2sc(N)nc12`, the AC50 (Cytochrome P450 3A4) is reported as 15.8 µM (inconclusive) and the AC50 [2] is reported as 50.1 µM (inconclusive).

With `COc1cc2cc(NC(C)=O)cc(NCCCO)c2cc1OC` the IC50 [3] was 29.3 µM (active), the IC50 [4] was 16.9 µM (active) and the IC50 (Caspase-3) was 37.7 µM (active). For the same molecule, the IC50 [5] was 56 µM (active).

With `CC(C)CC(=O)Nc1ccc2nc(NC(=O)c3ccccc3)sc2c1` the IC50 [3] was 3.07 µM (active), the IC50 [4] was 6.09 µM (active) and the IC50 (Caspase-3) was 7.24 µM (active). The IC50 [5] was 6.63 µM (active).

In the case of `C[C@H](CO)N1C[C@H](C)[C@@H](CN(C)Cc2ccc(Oc3ccccc3)cc2)Oc2c(NS(C)(=O)=O)cccc2C1=O`, the AC50 [1] is reported as 19.5 µM (active).

With `O=[N+]([O-])c1ccc(O)c(/N=C/c2sc3ccccc3c2O)c1` the IC50 (Nonstructural protein 1) was > 100 µM (active), the IC50 (Prothrombin) was 2.57 µM (active) and the EC50 [6] was 5.2 µM (active). The EC50 (Streptococcus) was 9.08 µM (active), the IC50 [7] was 3.28 µM (active) and the IC50 [8] was > 100 µM (inactive).

For `N#Cc1ccccc1C(C#N)c1c(Cl)cnn(Cc2cccc3ccccc23)c1=O` (stereo not drawn), the IC50 [9] was 9.7 µM (active) and the IC50 [10] was 0.782 µM (active).

For `C=C1c2ccccc2CC(CCN(C)C)c2ccccc21` (stereo not drawn), the Ki [11] was 3.16 µM (active) and the Ki [12] was 1.26 µM (active).

In the case of `CC(Nc1ccccc1)C(=O)O` (stereo not drawn), the EC50 [13] is reported as > 100 µM (inactive).

For `COc1ccc(CCN(C)C(=O)CCc2ccc(Cl)c(Cl)c2)cc1OC`, the Ki [14] was 2 µM (active) and the Ki [12] was 2.51 µM (active).

With `O=c1c(Oc2ccc3cc[nH]c3c2)c(Cl)cnn1Cc1cccc2ccccc12` the IC50 [9] was 18.6 µM (inactive) and the IC50 [10] was 1.01 µM (active).

For `Cn1c(-c2ccccc2)cnc1NC(=O)c1cc(-c2ccccc2)on1`, the AC50 [15] was 117 µM (active).
